This note sets out measurements from patent US20220289753A1, “SHP2 INHIBITORS” (IRBM S.P.A., priority 2019, published 2022).

The test system of assay [1] is ERK phosphorylation in KYSE-520 cells. Nature of the assay: Phospho-ERK cellular assay (Advanced phospho-ERK1/2 (Thr202/Tyr204) TR-FRET kit). It is filed as cell-based. The settings on record: Homo sapiens, KYSE-520, 2 h, KYSE-520 cells, 2 h at 37° C., TR-FRET; read-out: pERK IC50. The essentials: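 IC50 values are inflection points of four-parameter logistic fits of percent activity against compound dilution. Compound exposure lasted 2 h at 37° C in KYSE-520 cells. Lysates were probed overnight with Eu-cryptate/d2 antibodies to ERK1/2 phosphorylated at Thr202/Tyr204, so reduced TR-FRET indicates SHP2 inhibition.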
Background: Time-resolved FRET reads energy transfer from a long-lived donor to a nearby acceptor.

Assay [2] concerns the target T1, SHP-2 enzyme (Met1-Leu525) (Homo sapiens, UniProt Q06124).
T1 construct: synthetized by Origene, Met1-Leu525, cat #TP750155; purchased Origene TP750155
T1 sequence (Q06124 1-525): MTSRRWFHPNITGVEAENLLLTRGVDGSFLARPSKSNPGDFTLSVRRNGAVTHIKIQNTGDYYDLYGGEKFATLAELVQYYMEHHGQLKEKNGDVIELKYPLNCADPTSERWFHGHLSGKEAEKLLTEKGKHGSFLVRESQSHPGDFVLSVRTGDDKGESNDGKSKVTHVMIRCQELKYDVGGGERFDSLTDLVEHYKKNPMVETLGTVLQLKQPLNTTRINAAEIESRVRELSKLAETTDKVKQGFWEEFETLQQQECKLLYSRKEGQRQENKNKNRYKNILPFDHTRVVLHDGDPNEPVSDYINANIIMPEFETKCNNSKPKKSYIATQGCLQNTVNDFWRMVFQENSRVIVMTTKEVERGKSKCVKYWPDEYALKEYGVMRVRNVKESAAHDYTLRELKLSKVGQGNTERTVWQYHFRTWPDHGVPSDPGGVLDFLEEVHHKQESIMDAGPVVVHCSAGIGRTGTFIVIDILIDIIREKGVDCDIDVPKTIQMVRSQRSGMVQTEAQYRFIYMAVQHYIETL
Nature of the assay: SHP2 inhibition enzymatic assay (DiFMUP substrate, IRS1 peptide activation). It is filed as biochemical. As to conditions: SHP2 wt; activated by 500 nM IRS1 peptide; 75 μM DiFMUP substrate. Put shortly:
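SHP-2 (Met1-Leu525, 0.5 nM final) preincubated 30 min with compounds and IRS1 activating peptide in HEPES pH 7.2 buffer with NaCl, KCl, EDTA, tween-20, 5 mM DTT. DiFMUP then added for 30 min at room temperature and fluorescence read. IC50 from four-parameter logistic fit of % inhibition.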

The term IC50 denotes the concentration needed to halve the response being measured.

For `COc1ncccc1Sc1cnc2[nH]c(N3CCC4(CC3)Cc3ccc(Br)cc3[C@H]4N)nc2n1` [Example 231, (S)-6-bromo-1′-(5-((2-methoxypyridin-3-yl)thio)-1H-imidazo[4,5-b]pyrazin-2-yl)-1,3-dihydrospiro[indene-2,4′-piperidin]-1-amine], the IC50 in assay [1] is less than 1000 nM; in assay [2], less than 500 nM.
For `N[C@@H]1c2ccccc2CC12CCN(c1nc3nc(Sc4ccnc5[nH]ccc45)cnc3[nH]1)CC2` [Example 232, (S)-1′-(5-((1H-pyrrolo[2,3-b]pyridin-4-yl)thio)-1H-imidazo[4,5-b]pyrazin-2-yl)-1,3-dihydrospiro[indene-2,4′-piperidin]-1-amine] the same measures were less than 1000 nM and less than 500 nM.
Take `N[C@@H]1c2ccccc2CC12CCN(c1nc3nc(Sc4cccnc4OCc4ncco4)cnc3[nH]1)CC2` [Example 235, (S)-1′-(5-((2-(oxazol-2-ylmethoxy)pyridin-3-yl)thio)-1H-imidazo[4,5-b]pyrazin-2-yl)-1,3-dihydrospiro[indene-2,4′-piperidin]-1-amine]: the IC50 in assay [1] is 1000 to 5000 nM; in assay [2] it was less than 500 nM.
With `Cc1nccc(Sc2cnc3nc(N4CCC5(CC4)Cc4ccccc4[C@H]5N)[nH]c3n2)c1Cl` [Example 195, (S)-1′-(6-((3-chloro-2-methylpyridin-4-yl)thio)-1H-imidazo[4,5-b]pyrazin-2-yl)-1,3-dihydrospiro[indene-2,4′-piperidin]-1-amine], the results for the IC50 in assay [1] and in assay [2] were less than 1000 nM and less than 500 nM, respectively.
On to `CN1C(=O)COc2c(Sc3cnc4nc(N5CCC6(CC5)Cc5ccccc5[C@H]6N)[nH]c4n3)cccc21` [Example 173, (S)-8-((2-(1-amino-1,3-dihydrospiro[indene-2,4′-piperidin]-1′-yl)-1H-imidazo[4,5-b]pyrazin-6-yl)thio)-4-methyl-2H-benzo[b][1,4]oxazin-3(4H)-one], for which the values for the IC50 in assay [1] and in assay [2] were 1000 to 5000 nM and less than 500 nM, respectively.
For the molecule `N[C@@H]1c2ccccc2OC12CCN(c1nc3nc(Sc4cccnc4C(F)(F)F)cnc3[nH]1)CC2` [Example 143, (R)-1′-(5-((2-(trifluoromethyl)pyridin-3-yl)thio)-1H-imidazo[4,5-b]pyrazin-2-yl)-3H-spiro[benzofuran-2,4′-piperidin]-3-amine], the IC50 in assay [1] was less than 1000 nM; in assay [2], less than 500 nM.
In the case of `N[C@@H]1c2ccccc2CC12CCN(c1nc3nc(Sc4ccnc(NC5CC5)c4Cl)cnc3[nH]1)CC2` [Example 160, (S)-1′-(5-((3-chloro-2-(cyclopropylamino)pyridin-4-yl)thio)-1H-imidazo[4,5-b]pyrazin-2-yl)-1,3-dihydrospiro[indene-2,4′-piperidin]-1-amine], the results for the IC50 in assay [1] and in assay [2] were less than 1000 nM and less than 500 nM, respectively.
As for `N[C@@H]1c2ccncc2CC12CCN(c1nc3ncc(Sc4ccnc(NC5CC5)c4Cl)nc3[nH]1)CC2` [Example 196, (S)-1′-(5-((3-chloro-2-(cyclopropylamino)pyridin-4-yl)thio)-1H-imidazo[4,5-b]pyrazin-2-yl)-5,7-dihydrospiro[cyclopenta[c]pyridine-6,4′-piperidin]-5-amine], the results for the IC50 in assay [1] and in assay [2] were less than 1000 nM and less than 500 nM, respectively.
For `N[C@@H]1c2ccccc2CC12CCN(c1nc3nc(Sc4ccn[nH]c4=O)cnc3[nH]1)CC2` [Example 234, (S)-4-((2-(1-amino-1,3-dihydrospiro[indene-2,4′-piperidin]-1′-yl)-1H-imidazo[4,5-b]pyrazin-5-yl)thio)pyridazin-3(2H)-one], the results for the IC50 in assay [1] and in assay [2] were less than 1000 nM and less than 500 nM, respectively.
`Cn1cc2cccc(Sc3cnc4[nH]c(N5CCC6(CC5)Cc5ccccc5[C@H]6N)nc4n3)c2n1` [Example 202, (S)-1′-(5-((2-methyl-2H-indazol-7-yl)thio)-1H-imidazo[4,5-b]pyrazin-2-yl)-1,3-dihydrospiro[indene-2,4′-piperidin]-1-amine]: the IC50 in assay [1] is 1000 to 5000 nM; in assay [2], less than 500 nM.
As to `CC1(N)CCN(c2nc3nc(Sc4ccnc5cccnc45)cnc3[nH]2)CC1` [Example 62, 1-(5-((1,5-naphthyridin-4-yl)thio)-1H-imidazo[4,5-b]pyrazin-2-yl)-4-methylpiperidin-4-amine], the IC50 is 1000 to 5000 nM in assay [1] and less than 500 nM in assay [2].
